According to ChEMBL document CHEMBL1201862, “PubChem BioAssay data set” (2004):
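Where inhibition never reached the appropriate level, the endpoint shown equals the highest concentration tested. Otherwise, values were interpolated linearly from a five-concentration, 48-hour dose response in 96-well plates. GI50 marks 50% less growth.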 The source made the active and inactive calls. No stated cut-off is given here; in the data, active = GI50 up to about 1.1 µM and inactive = higher.

What was measured:
Test in all cases: growth of human tumour cells (NCI), 48 h
BT-549 = tested on: BT-549
COLO 205 = tested on: COLO 205
HOP-62 = tested on: HOP-62
IGROV-1 = tested on: IGROV-1
KM12 = tested on: KM12
MDA-MB-435 = tested on: MDA-MB-435
MDA-N = tested on: MDA-N
NCI-H460 = tested on: NCI-H460
RPMI-8226 = tested on: RPMI-8226
SF-295 = tested on: SF-295
SF-539 = tested on: SF-539
SK-MEL-2 = tested on: SK-MEL-2
SR = tested on: SR
SW-620 = tested on: SW-620
TK-10 = tested on: TK-10
U-251 = tested on: U-251
UACC-62 = tested on: UACC-62
CCRF-CEM = tested on: CCRF-CEM
HT-29 = tested on: HT-29
NCI-H522 = tested on: NCI-H522

Measured: GI50

COC(=O)[C@]12CSC[C@H]1C[C@H](c1ccc(N(C)C)cc1)N2
inactive: BT-549 > 100 µM | COLO 205 > 100 µM | HOP-62 > 100 µM | IGROV-1 > 100 µM | KM12 > 100 µM | MDA-MB-435 > 100 µM | MDA-N > 62.2 µM | NCI-H460 > 100 µM | RPMI-8226 > 31.6 µM | SF-295 > 100 µM | SF-539 > 100 µM | SK-MEL-2 > 100 µM | SR > 100 µM | SW-620 > 100 µM | TK-10 > 100 µM | U-251 > 100 µM | UACC-62 > 100 µM

C(=C/CCCN1O[C@@H](CCCCCCCCc2cccnc2)[C@H]2CCC[C@H]21)/CCCCCCCCCc1cccnc1
inactive: BT-549 33 µM | CCRF-CEM 15.7 µM | COLO 205 14.9 µM | HOP-62 20.8 µM | HT-29 21.9 µM | IGROV-1 30.5 µM | KM12 18.5 µM | MDA-MB-435 16.2 µM | MDA-N 24.1 µM | NCI-H460 17.3 µM | RPMI-8226 7.96 µM | SF-295 20 µM | SF-539 18.1 µM | SK-MEL-2 22.4 µM | SR 17.2 µM | SW-620 31.3 µM | TK-10 18.4 µM | U-251 15.7 µM | UACC-62 20.9 µM

C1=CC(=[N+]2N=C(c3ccccc3)CC2c2ccccc2)C=CC1=C1SC(c2ccccc2)(c2ccccc2)c2ccccc21.[O-][Cl+3]([O-])([O-])[O-] (stereo not drawn)
inactive: BT-549 78.5 µM | CCRF-CEM > 100 µM | HOP-62 > 100 µM | HT-29 > 100 µM | IGROV-1 > 100 µM | KM12 > 100 µM | MDA-MB-435 > 100 µM | MDA-N > 100 µM | NCI-H460 > 100 µM | SF-295 61.8 µM | SF-539 > 100 µM | SK-MEL-2 > 100 µM | SR > 100 µM | SW-620 > 100 µM | TK-10 > 100 µM | U-251 > 100 µM | UACC-62 > 100 µM

O=c1[nH]c2cccc([N+](=O)[O-])c2c(=O)n1-c1ccc(Cl)cc1
inactive: BT-549 10.7 µM | CCRF-CEM 17.4 µM | COLO 205 4.24 µM | HOP-62 18.6 µM | HT-29 7.03 µM | IGROV-1 16.7 µM | KM12 15.2 µM | MDA-MB-435 6.64 µM | MDA-N 11.3 µM | NCI-H460 4.4 µM | RPMI-8226 13.6 µM | SF-295 1.89 µM | SF-539 12.3 µM | SK-MEL-2 9.86 µM | SR 15 µM | SW-620 10.4 µM | TK-10 14.9 µM | U-251 16.4 µM | UACC-62 5.3 µM

Fc1cccc(C2SCc3nc4cc5ccccc5cc4n32)c1 (stereo not drawn)
inactive: BT-549 > 100 µM | CCRF-CEM > 100 µM | COLO 205 > 100 µM | HOP-62 41.5 µM | HT-29 > 100 µM | IGROV-1 > 100 µM | KM12 > 100 µM | MDA-MB-435 > 100 µM | MDA-N > 100 µM | RPMI-8226 > 100 µM | SF-295 > 100 µM | SF-539 > 100 µM | SK-MEL-2 > 100 µM | SR > 100 µM | SW-620 > 100 µM | TK-10 > 100 µM | U-251 > 100 µM | UACC-62 > 100 µM

O=[N+]([O-])/C=C/c1cccc(F)c1
inactive: BT-549 2.03 µM | CCRF-CEM 2.22 µM | COLO 205 2.74 µM | HOP-62 10.3 µM | HT-29 3.18 µM | IGROV-1 1.37 µM | KM12 2.95 µM | MDA-MB-435 3.24 µM | MDA-N 2.64 µM | NCI-H460 12.2 µM | NCI-H522 12.3 µM | RPMI-8226 1.48 µM | SF-295 11.4 µM | SF-539 4.45 µM | SK-MEL-2 12.4 µM | SW-620 2.58 µM | TK-10 3.82 µM | U-251 3.53 µM | UACC-62 8.04 µM

Cc1c(C)c2ccc(O)cc2[nH]c1=O
inactive: BT-549 > 100 µM | CCRF-CEM > 100 µM | COLO 205 > 100 µM | HOP-62 > 100 µM | HT-29 > 100 µM | IGROV-1 > 100 µM | KM12 > 100 µM | MDA-MB-435 > 100 µM | MDA-N > 100 µM | NCI-H460 > 100 µM | RPMI-8226 > 100 µM | SF-295 > 100 µM | SF-539 > 100 µM | SK-MEL-2 > 100 µM | SR > 100 µM | SW-620 > 100 µM | U-251 > 100 µM | UACC-62 > 100 µM

CCCCn1cc(C(=O)O)c(=O)c2c3sccc3ccc21
inactive: BT-549 > 100 µM | CCRF-CEM > 100 µM | COLO 205 > 100 µM | HOP-62 > 100 µM | HT-29 > 100 µM | IGROV-1 > 100 µM | KM12 > 100 µM | MDA-MB-435 > 100 µM | MDA-N > 100 µM | NCI-H460 > 100 µM | NCI-H522 > 100 µM | RPMI-8226 > 100 µM | SF-295 74.8 µM | SF-539 > 100 µM | SK-MEL-2 > 100 µM | SW-620 > 100 µM | TK-10 > 100 µM | U-251 6.73 µM | UACC-62 > 100 µM

O=C1Nc2ccccc2NC1C1OC(c2ccccc2)=CC1=O (stereo not drawn)
inactive: BT-549 > 100 µM | CCRF-CEM > 100 µM | COLO 205 > 100 µM | HT-29 > 100 µM | IGROV-1 > 100 µM | KM12 > 100 µM | MDA-MB-435 > 100 µM | MDA-N > 100 µM | NCI-H460 > 100 µM | RPMI-8226 > 100 µM | SF-295 > 100 µM | SF-539 > 100 µM | SK-MEL-2 > 100 µM | SR > 100 µM | SW-620 > 100 µM | TK-10 > 100 µM | U-251 > 100 µM | UACC-62 > 100 µM

CC(=O)N(C(=O)CC(=O)N1N=C(c2ccccc2)C(/N=N/c2ccccc2[N+](=O)[O-])C1=O)c1ccc(Cl)cc1 (stereo not drawn)
inactive: BT-549 > 10 µM | CCRF-CEM > 10 µM | COLO 205 > 10 µM | HOP-62 > 10 µM | HT-29 > 10 µM | IGROV-1 > 10 µM | KM12 > 10 µM | MDA-MB-435 > 10 µM | MDA-N > 10 µM | NCI-H460 > 10 µM | NCI-H522 > 10 µM | RPMI-8226 > 10 µM | SF-295 > 10 µM | SF-539 > 10 µM | SK-MEL-2 > 10 µM | SW-620 > 10 µM | TK-10 > 10 µM | U-251 > 10 µM | UACC-62 > 10 µM

CC(C)(C)n1[nH]c(=O)n(C(C)(C)C)c1=O
inactive: BT-549 > 100 µM | CCRF-CEM > 10 µM | COLO 205 > 100 µM | KM12 > 100 µM | MDA-MB-435 > 100 µM | MDA-N > 100 µM | NCI-H460 > 100 µM | RPMI-8226 > 100 µM | SF-295 > 100 µM | SF-539 > 100 µM | SK-MEL-2 > 100 µM | SR > 100 µM | SW-620 > 100 µM | TK-10 > 100 µM | U-251 > 100 µM | UACC-62 > 100 µM

COc1cc2c(cc1OC)-c1cc3cc(OC)c(OC)cc3c(C)[n+]1CC2.O=C([O-])CS(=O)(=O)O
inactive: BT-549 41.7 µM | CCRF-CEM 6.49 µM | COLO 205 31.6 µM | HOP-62 > 100 µM | HT-29 > 100 µM | IGROV-1 61.1 µM | KM12 26.3 µM | MDA-MB-435 76.4 µM | MDA-N 89.3 µM | NCI-H460 13.8 µM | NCI-H522 6.78 µM | RPMI-8226 > 100 µM | SF-295 > 100 µM | SF-539 76.6 µM | SK-MEL-2 > 100 µM | SW-620 > 100 µM | TK-10 > 100 µM | U-251 15 µM | UACC-62 23.2 µM

COC(=O)c1csc(-c2nc(CCNC(=O)OC(C)(C)C)sc2Br)n1
inactive: BT-549 > 100 µM | CCRF-CEM > 100 µM | COLO 205 > 100 µM | HOP-62 > 100 µM | HT-29 > 100 µM | IGROV-1 > 100 µM | KM12 > 100 µM | MDA-MB-435 > 100 µM | MDA-N > 100 µM | NCI-H460 > 100 µM | RPMI-8226 99.3 µM | SF-295 > 100 µM | SF-539 > 100 µM | SR 81.8 µM | SW-620 > 100 µM | TK-10 > 100 µM | U-251 > 100 µM | UACC-62 > 100 µM

COC(=O)C1=C(OC(=O)/C(=C/c2ccccc2)c2ccc([N+](=O)[O-])cc2)C(C(=O)OC)[C@@]2(O)[C@@H](C(=O)OC)[C@H](C)C[C@@H]1[C@@H]2C(=O)OC (stereo partly drawn)
inactive: BT-549 31.1 µM | CCRF-CEM 12.9 µM | COLO 205 > 100 µM | HOP-62 > 100 µM | HT-29 > 100 µM | IGROV-1 > 100 µM | KM12 > 100 µM | MDA-MB-435 > 100 µM | MDA-N > 100 µM | NCI-H460 > 100 µM | NCI-H522 77.3 µM | RPMI-8226 3.71 µM | SF-295 > 100 µM | SF-539 51.5 µM | SK-MEL-2 > 100 µM | SW-620 > 100 µM | TK-10 > 100 µM | U-251 > 100 µM | UACC-62 > 100 µM

CC1C2CC(C/C2=N/O)C1(C)C (stereo not drawn)
inactive: BT-549 > 100 µM | CCRF-CEM > 100 µM | COLO 205 > 100 µM | HOP-62 > 100 µM | HT-29 > 100 µM | IGROV-1 > 100 µM | KM12 > 100 µM | MDA-MB-435 > 100 µM | MDA-N > 100 µM | NCI-H460 > 100 µM | NCI-H522 > 100 µM | SF-295 > 100 µM | SF-539 > 100 µM | SR > 100 µM | SW-620 > 100 µM | TK-10 > 100 µM | U-251 > 100 µM | UACC-62 > 100 µM
